Data from patent US20020049223A1, “Quinoline and naphthyridine carboxylic acid antibacterials” (priority 1999, published 2002).
Structures can show the parent of a compound that is named as a salt.

Legend:
[1] = system: Haemophilus influenzae DILL AMP R; assay: Assay B: in vitro antibacterial activity, broth microdilution MIC (NCCLS); assay type: cell-based; conditions: Table 2, Assay B, Mueller Hinton broth with yeast extract, hematin and NAD, 20 to 24 hr; code E = Haemophilus influenzae DILL AMP R; unit assumed
In short: (§1)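 NCCLS broth microdilution with two-fold dilutions in cation-adjusted Mueller Hinton broth, inoculum about 5×10^5 CFU/mL, 35 °C in ambient air for 16-20 h; MIC read visually as lowest concentration completely inhibiting growth. S. pneumoniae: 3% lysed horse blood, 20-24 h; H. influenzae: 5 g/L yeast extract, 0.3 mmol/L hematin, 15 mg/L NAD, 20-24 h.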

[2] = system: Escherichia coli JUHL; assay: as above; assay type: cell-based; conditions: Table 2, Assay B, cation-adjusted Mueller Hinton broth, 35° C., 16 to 20 hr; code D = Escherichia coli JUHL; unit assumed
In short: as §1

[3] = system: Streptococcus pneumoniae ATCC 6303; assay: as above; assay type: cell-based; conditions: Table 2, Assay B, Mueller Hinton broth with 3% lysed horse blood, 20 to 24 hr; code F = Streptococcus pneumoniae ATCC 6303; unit assumed
In short: as §1

[4] = system: Enterococcus faecalis PIU 1967; assay: as above; assay type: cell-based; conditions: Table 2, Assay B, cation-adjusted Mueller Hinton broth, 35° C., 16 to 20 hr; code B = Enterococcus faecalis PIU 1967; unit assumed
In short: as §1

[5] = system: Staphylococcus aureus ATCC 6538P; assay: as above; assay type: cell-based; conditions: Table 2, Assay B, cation-adjusted Mueller Hinton broth, 35° C., 16 to 20 hr; code A = Staphylococcus aureus ATCC 6538P; unit assumed
In short: as §1

Row | Compound | melting point | Antibacterial Activity (MIC's), E [1] [µg/mL] | Antibacterial Activity (MIC's), D [2] [µg/mL] | Antibacterial Activity (MIC's), F [3] [µg/mL] | Antibacterial Activity (MIC's), B [4] [µg/mL] | Antibacterial Activity (MIC's), A [5] [µg/mL]
1 | Br.CC1(C)CNCc2cc(-c3ccc4c(=O)c(C(=O)O)cn(C5CC5)c4n3)sc21 | > 300 °C (dec.) |  |  |  |  | 
2 | Br.CC1(C)CNCc2cc(-c3nc4c(cc3F)c(=O)c(C(=O)O)cn4C3CC3)sc21 | 258 to 262 °C (dec.) |  |  |  |  | 
3 | CC1CNCc2sc(-c3ccc4c(=O)c(C(=O)O)cn(C5CC5)c4c3)cc21.Cl (centres unmarked) | 295 to 298 °C |  |  |  |  | 
4 | COc1c(-c2cc3c(s2)CCC/C3=N\OCc2cccnc2)ccc2c(=O)c(C(=O)O)cn(C3CC3)c12 (as salt: hydrochloride) [Example 182, 1-cyclopropyl-8-methoxy-4-oxo-7-((4E)-4-((3-pyridinylmethoxy)imino)-4,5,6,7-tetrahydro-1-benzothien-2-yl)-1,4-dihydro-3-quinolinecarboxylic acid] | 181 to 183 °C |  |  |  |  | 
5 | CC1NCCc2cc(-c3ccc4c(=O)c(C(=O)O)cn(C5CC5)c4n3)sc21.Cl (centres unmarked) | 310 to 312 °C |  |  |  |  | 
6 | COc1c(-c2cc3c(s2)C(O)CCC3)ccc2c(=O)c(C(=O)O)cn(C3CC3)c12 (centres unmarked) [Example 41, 1-cyclopropyl-7-(7-hydroxy-4,5,6,7-tetrahydro-1-benzothien-2-yl)-8-methoxy-4-oxo-1,4-dihydro-3-quinolinecarboxylic acid] | 238 to 240 °C |  |  |  |  | 
7 | COc1c(-c2cc3c(s2)CCC(CO)=C3)ccc2c(=O)c(C(=O)O)cn(C3CC3)c12 [Example 44, 1-cyclopropyl-7-(5-(hydroxymethyl)-6,7-dihydro-1-benzothien-2-yl)-8-methoxy-4-oxo-1,4-dihydro-3-quinolinecarboxylic acid] | 205 to 206 °C |  |  |  |  | 
8 | Cl.O=C(O)c1cn(C2CC2)c2nc(-c3cc4c(s3)CNCC4)ccc2c1=O | 298 to 300 °C |  |  |  |  | 
9 | Br.COc1c(-c2cc3c(s2)CCNC3C)ccc2c(=O)c(C(=O)O)cn(C3CC3)c12 (centres unmarked) | 202 to 205 °C (dec.) |  |  |  |  | 
10 | COc1c(-c2cc3c(s2)CCCC3=O)ccc2c(=O)c(C(=O)O)cn(C3CC3)c12 [Example 50, 1-cyclopropyl-8-methoxy-4-oxo-7-(4-oxo-4,5,6,7-tetrahydro-1-benzothien-2-yl)-1,4-dihydro-3-quinolinecarboxylic acid] | 266 to 267 °C |  |  |  |  | 
11 | Cc1c(F)c(-c2cc3c(s2)CCCC3N)nc2c1c(=O)c(C(=O)O)cn2C1CC1.Cl (centres unmarked) [Example 367, 7-(4-amino-4,5,6,7-tetrahydro-1-benzothien-2-yl)-1-cyclopropyl-6-fluoro-5-methyl-4-oxo-1,4-dihydro-1,8-naphthyridine-3-carboxylic acid hydrochloride] |  | 0.03 | 0.06 | 0.03 | 0.125 | 0.015
12 | CON=C1CCc2sc(-c3ccc4c(=O)c(C(=O)O)cn(C5CC5)c4c3OC)cc2C1 [Example 56, 1-cyclopropyl-8-methoxy-7-((5E/Z)-5-(methoxnimino)-4,5,6,7-tetrahydro-1-benzothien-2-yl)-4-oxo-1,4-dihydro-3-quinolinecarboxylic acid] |  | 0.25 | 4 | 0.125 | 0.5 | 0.03
13 | COc1c(-c2cc3c(s2)CCCC3N2CC(O)C2)ccc2c(=O)c(C(=O)O)cn(C3CC3)c12.Cl (centres unmarked) [Example 198, 1-cyclopropyl-7-(4-(3-hydroxy-1-azetidinyl)-4,5,6,7-tetrahydro-1-benzothien-2-yl)-8-methoxy-4-oxo-1,4-dihydro-3-guinolinecarboxvlic acid hydrochloride] |  | 0.25 | 0.5 | 0.125 | 0.25 | 0.25
14 | COc1c(-c2cc3c(s2)CCCC3=NN2CCCC2)ccc2c(=O)c(C(=O)O)cn(C3CC3)c12 [Example 74, 1-cyclopropyl-8-methoxy-4-oxo-7-((4E/Z)-4-(1-pyrrolidinylimino)-4,5,6,7-tetrahydro-1-benzothien-2-yl)-1,4-dihydro-3-quinolinecarboxylic acid] |  | 0.06 | 0.5 | 0.125 | 0.25 | 0.015
15 | COc1c(-c2cc3c(s2)CCCC3NS(C)(=O)=O)ccc2c(=O)c(C(=O)O)cn(C3CC3)c12 (centres unmarked) [Example 88, 1-cyclopropyl-8-methoxy-7-(4-((methylsulfonyl)amino)-4,5,6,7-tetrahydro-1-benzothien-2-yl)-4-oxo-1,4-dihydro-3-quinolinecarboxylic acid] |  | 0.125 | 1 | 0.125 | 0.25 | 0.015
16 | O=C(O)c1cn(C2CC2)c2cc(-c3cc4c(s3)CCCC4O)ccc2c1=O (centres unmarked) [Example 281, 1-cyclopropyl-7-(4-hydroxy-4,5,6,7-tetrahydro-1-benzothien-2-yl)-4-oxo-1,4-dihydroquinoline-3-carboxylic acid] |  | 0.06 | 0.125 | 0.25 | 0.125 | 0.03
17 | O=C(O)c1cn(C2CC2)c2c(F)c(-c3cc4c(s3)C(O)CCC4)c(F)cc2c1=O (centres unmarked) [Example 295, 1-cyclopropyl-6,8-difluoro-7-(7-hydroxy-4,5,6,7-tetrahydro-1-benzothien-2-yl)-4-oxo-1,4-dihydroquinoline-3-carboxylic acid] |  | ≤ 0.004 | 0.03 | 0.03 | 0.008 | ≤ 0.004
18 | Cl.NC1CCCc2sc(-c3ccc4c(=O)c(C(=O)O)cn(C5CC5)c4n3)cc21 (centres unmarked) [Example 200, 7-(4-amino-4,5,6,7-tetrahydro-1-benzothien-2-yl)-1-cyclopropyl-4-oxo-1,4-dihydro[1,8]naphthyridine-3-carboxylic acid hydrochloride] |  | 0.03 | 0.06 | 0.125 | 0.125 | 0.03
19 | COc1c(-c2cc3c(s2)CC(C)(C)CC3O)ccc2c(=O)c(C(=O)O)cn(C3CC3)c12 (centres unmarked) [Example 234, 1-cyclopropyl-7-(4-hydroxy-6,6-dimethyl-4,5,6,7-tetrahydro-1-benzothien-2-yl)-8-methoxy-4-oxo-1,4-dihydro-3-quinolinecarboxylic acid] |  | 0.5 | 2 | 0.5 | 0.5 | 0.03
20 | COc1c(-c2cc3c(s2)CCCC3=NNC(C)=O)ccc2c(=O)c(C(=O)O)cn(C3CC3)c12 [Example 96, 7-((4E/Z)-4-(acetylhydrazono)-4,5,6,7-tetrahydro-1-benzothien-2-yl)-1-cyclopropyl-8-methoxy-4-oxo-1,4-dihydro-3-quinolinecarboxylic acid] |  | 0.03 | 1 | 0.03 | 0.5 | < 0.004
21 | COc1c(-c2cc3c(s2)S(=O)(=O)CCC3N)ccc2c(=O)c(C(=O)O)cn(C3CC3)c12.Cl (centres unmarked) [Example 143, 7-(4-amino-7,7-dioxido-5,6-dihydro-4H-thieno[2,3-b]thiopyran-2-yl)-1-cyclopropyl-8-methoxy-4-oxo-1,4-dihydro-3-quinolinecarboxylic acid hydrochloride] |  | 0.125 | 64 | 0.5 | 0.5 | 0.125
22 | CON=C1CCc2cc(-c3ccc4c(=O)c(C(=O)O)cn(C5CC5)c4c3OC)sc2C1 [Example 66, 1-cyclopropyl-8-methoxy-7-((6E/Z)-6-(methoxyimino)-4,5,6,7-tetrahydro-1-benzothien-2-yl)-4-oxo-1,4-dihydro-3-quinolinecarboxylic acid] |  | 0.5 | 2 | 0.5 | 0.5 | 0.06
23 | COc1c(-c2cc3c(s2)CCCC3NCCO)ccc2c(=O)c(C(=O)O)cn(C3CC3)c12.Cl (centres unmarked) [Example 155, 1-cyclopropyl-7-(4-((2-hydroxyethyl)amino)-4,5,6,7-tetrahydro-1-benzothien-2-yl)-8-methoxy-4-oxo-1,4-dihydro-3-ouinolinecarboxylic acid hydrochloride] |  | 0.06 | 0.5 | 0.03 | 0.125 | 0.03
24 | COc1c(-c2cc3c(s2)CC(NS(C)(=O)=O)C3)ccc2c(=O)c(C(=O)O)cn(C3CC3)c12 (centres unmarked) [Example 254, 1-cyclopropyl-8-methoxy-7-(5-((methylsulfonyl)amino)-5,6-dihydro-4H-cyclopenta[b]thien-2-yl)-4-oxo-1,4-dihydro-3-quinolinecarboxylic acid] |  | 0.06 | 1 | 0.25 | 0.5 | 0.06
